Data reported in patent US12241090B2, “Methods and systems for converting precursor cells into gastric tissues through directed differentiation” (CHILDREN'S HOSPITAL MEDICAL CENTER, priority 2014, dated 2025).

Assays:
[1] = tested on: hPSC-derived definitive endoderm (DE) cultures; assay: Endoderm patterning of hPSC-derived DE cultures with growth factors/antagonists, qPCR and immunofluorescence; format: cell-based, human; details: CHIR 2 μM, compared with recombinant WNT3A
Procedure: Following DE induction, cells were treated for three days with growth factors/antagonists in RPMI 1640 with 2.0% dFBS. […] RA (2 μM; Sigma Aldrich) is added on the final day. Three-dimensional growth and antral specification. Posterior foregut spheroids were embedded in Matrigel (BD Biosciences) as previously described^10, 12 and subsequently grown in Advanced DMEM/F12 (Invitrogen) supplemented with N2 (Invitrogen), B27 (Invitrogen), L-glutamine, 10 μM HEPES, penicillin/streptomycin, and EGF (100 ng ml^−1; R&D Systems). For antral specification, RA and noggin were added for the first three days of three-dimensional growth. For endocrine cell specification, the EGF concentration is lowered to 10 ng ml^−1 at day 30.
The media was changed every day.

[2] = tested on: hPSC-derived foregut spheroids; assay: Fundus specification protocol: Wnt signaling at days 6-9 of gastric organoid differentiation, qPCR; format: cell-based, human; details: CHIR 2 uM
Procedure: Next, the function of Wnt signaling in the regulation of fundus-antrum patterning at days 6-9 of the gastric organoid differentiation protocol was tested. Addition of Wnt3a (at 100 ng/mL and 500 ng/mL) had no effect on spheroid gene expression, but it […] expression of the Wnt target gene Axin2. Thus, the effects of the small molecule CHIR99021 (CHIR; 2 uM) were tested. CHIR99021 stimulates Wnt signaling in a receptor-independent fashion.
(§1) Analysis was performed using the ΔΔCT method.

[3] = tested on: posterior foregut spheroids; assay: Three-dimensional culture of posterior foregut spheroids with RA, qPCR of organ lineage markers; format: cell-based, human; details: RA (2 μM) for 72 hours (days 6-9)
Procedure: (§2) Following DE induction, cells were treated for three days with growth factors/antagonists in RPMI 1640 with 2.0% dFBS. […] CHIR99021 is a small molecule that stimulates the Wnt signaling pathway. RA (2 μM; Sigma Aldrich) is added on the final day. Three-dimensional growth and antral specification. Posterior foregut spheroids were embedded in Matrigel (BD Biosciences) as previously described^10, 12 and subsequently grown in Advanced DMEM/F12 (Invitrogen) supplemented with N2 (Invitrogen), B27 (Invitrogen), L-glutamine, 10 μM HEPES, penicillin/streptomycin, and EGF (100 ng ml^−1; R&D Systems). For antral specification, RA and noggin were added for the first three days of three-dimensional growth. For endocrine cell specification, the EGF concentration is lowered to 10 ng ml^−1 at day 30.
The spheroids were transferred to a three-dimensional in vitro culture system as previously described5, 10, 12. Briefly, spheroids were collected, resuspended in 50 μl Matrigel (BD Biosciences), and plated in a three-dimensional droplet. After Matrigel was allowed to solidify for 10-15 minutes in a tissue culture incubator, spheroids were overlaid with gut media: Advanced DMEM/F12 with N2 (Invitrogen), B27 (Invitrogen), L-glutamine, 10 μM HEPES, penicillin/streptomycin, and EGF (100 ng ml^−1; R&D Systems). For the first three days, RA and Noggin were added to the gut media. […]

[4] = tested on: human antral gastric organoids (hGOs); assay: Growth, morphogenesis and endocrine cell specification of human antral gastric organoids at different EGF concentrations; format: cell-based
Procedure: as §2
The spheroids were transferred to a three-dimensional in vitro culture system as previously described5, 10, 12. Briefly, spheroids were collected, resuspended in 50 μl Matrigel (BD Biosciences), and plated in a three-dimensional droplet. After Matrigel was allowed to solidify for 10-15 minutes in a tissue culture incubator, spheroids were overlaid with gut media: Advanced DMEM/F12 with N2 (Invitrogen), B27 (Invitrogen), L-glutamine, 10 μM HEPES, penicillin/streptomycin, and EGF (100 ng ml^−1; R&D Systems). For the first three days, RA and Noggin were added to the gut media. Media was replaced every 3-4 days, as necessary. At day 20, organoids were collected and re-plated in fresh Matrigel at dilution of ˜1:12.
All tissues were fixed in 4% paraformaldehyde for either one hour at room temperature for frozen processing or overnight at 4° C. for paraffin processing. For frozen sections, tissue was protected in 30% sucrose overnight at 4° C., then embedded in OCT (Tissue-Tek), and cut at 10 μm. For paraffin sections, tissue was processed through a graded ethanol series, followed by xylene, and then embedded in paraffin and cut at 7 μm. Tissue culture cells were fixed for 15 minutes at room temperature and stained directly. For staining, frozen slides were thawed to room temperature and rehydrated in PBS, while paraffin slides were deparaffinized and subjected to antigen retrieval. Slides were blocked in 5% normal donkey serum (Jackson Immuno Research) in PBS plus 0.5% Triton-X for 30 minutes at room temperature. Primary antibodies (listed in Methods Table 1) were diluted in blocking buffer and incubated overnight at 4° C. Slides were washed in PBS and incubated with secondary antibody for one hour at room temperature, and coverslips were mounted using Fluoromount-G (Southern Biotech). Confocal images were captured on a Nikon A1Rsi inverted confocal microscope.
as §1

Cc1c[nH]c(-c2cnc(NCCNc3ccc(C#N)cn3)nc2-c2ccc(Cl)cc2Cl)n1 [CHIR99021]
posteriorizing effects on endoderm [1]: same posteriorizing effects as recombinant WNT3A
Pdx1 expression levels [2]: robust repression
expression of fundus-specific markers IRX3 and IRX5 [2]: induced high levels
expression of the intestinal marker Cdx2 [2]: did not induce

CC1=C(/C=C/C(C)=C/C=C/C(C)=C/C(=O)O)C(C)(C)CCC1 [RA, retinoic acid]
increase in PDX1 mRNA levels [3]: > 100 fold

EGF: growth factor EGF (R&D Systems) added to gut media
endocrine cell formation ([4]; EGF 10 ng ml^−1 from day 30-34): abundance of endocrine cells
organoid diameter ([4]; EGF 100 ng mL^−1, over 3-4 weeks, from spheroids <100 μm): 2-4 mm
endocrine cells per organoid ([4]; EGF 100 ng ml^−1, 34-day hGOs): < 1 endocrine cell per organoid
expression of proendocrine transcription factor NEUROG3 ([4]; high EGF (100 ng ml^−1), qPCR at day 34): inhibited
